Assay results reported in patent US20060154335A1, “Novel members of the steroid/thyroid superfamily and uses therefor” (The Salk Institute for Biological Studies, priority 1994, published 2006).
“Also recorded” adds a separate entry of the source.

Tests used:
[1] = target: T1, PPARα (Mus musculus, UniProt P23204); assay: Cotransfection assay in CV-1 cells, PPRE3-TK-LUC reporter, CMX-PPARα; assay type: cell-based; conditions: 5 μM Wy 14,643, 30 μM linoleic acid, 30 μM LY-171883
T1 construct: constructed by inserting the cDNA inserts of PPARα, PPARγ, and PPARδ into pCMX; expressed in transfected cells; host or cells: CV-1 cells
T1 sequence (P23204 1-468): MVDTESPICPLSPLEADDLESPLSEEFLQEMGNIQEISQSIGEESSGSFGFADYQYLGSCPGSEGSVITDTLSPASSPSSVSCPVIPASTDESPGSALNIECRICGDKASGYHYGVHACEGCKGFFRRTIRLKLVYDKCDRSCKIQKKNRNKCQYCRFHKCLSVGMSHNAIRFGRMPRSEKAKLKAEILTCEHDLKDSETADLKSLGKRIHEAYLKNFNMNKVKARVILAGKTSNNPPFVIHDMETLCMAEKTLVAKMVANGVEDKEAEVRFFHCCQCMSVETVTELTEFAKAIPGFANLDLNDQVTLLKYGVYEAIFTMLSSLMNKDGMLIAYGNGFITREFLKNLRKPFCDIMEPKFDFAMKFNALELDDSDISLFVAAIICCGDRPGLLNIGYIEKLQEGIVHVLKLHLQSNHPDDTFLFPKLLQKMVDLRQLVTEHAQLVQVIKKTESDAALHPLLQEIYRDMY
Excerpt: (§1) Luciferase activities are presented as the fold activation achieved in compound-treated versus mock-treated cells. Similar results were obtained in triplicate in three independent experiments.
(§2) The mammalian expression vectors pCMX-PPARα, pCMX-PPARγ and pCMX-PPARδ were constructed by inserting the cDNA inserts of PPARα, PPARγ, and PPARδ into pCMX as previously described by Umesono et al., in Cell 65:1255-1266 (1991)). Construction of the reporter PPRE3-TK-LUC has also been previously described by Kliewer et al., (1992) supra. Cotransfection assays in CV-1 cells were done in 48 well plates using N-[1-(2,3-dioleoyloxy)-propyl [N,N,N-trimethyl ammonium methyl sulfate (DOTAP) according to the manufacturer's instructions (Boehringer Mannheim). Transfections contained 10 ng of receptor expression plasmid vector, 20 ng of the reporter PPRE3-TK-LUC, 60 ng of pCMX-βGAL (β-galactosidase) as an internal control, and 210 ng of carrier plasmid pGEM. Cells were incubated in the presence of DOTAP for 8 hours, washed, and incubated in the presence of peroxisome proliferators or fatty acids for 36 hours. Cell extracts were prepared and assayed for luciferase and β-galactosidase activity as previously described (Umesono, supra). All experimental points were done in triplicate.

[2] = target: T2, PPARγ (Mus musculus, UniProt P37238, N383S); assay: Cotransfection assay in CV-1 cells, PPRE3-TK-LUC reporter, CMX-PPARγ; assay type: cell-based; conditions: 5 μM Wy 14,643, 30 μM linoleic acid, 30 μM LY-171883
T2 construct: The first clone encodes a 475-amino acid protein; expressed in transfected cells; host or cells: CV-1 cells
T2 sequence (P37238 31-505 N383S): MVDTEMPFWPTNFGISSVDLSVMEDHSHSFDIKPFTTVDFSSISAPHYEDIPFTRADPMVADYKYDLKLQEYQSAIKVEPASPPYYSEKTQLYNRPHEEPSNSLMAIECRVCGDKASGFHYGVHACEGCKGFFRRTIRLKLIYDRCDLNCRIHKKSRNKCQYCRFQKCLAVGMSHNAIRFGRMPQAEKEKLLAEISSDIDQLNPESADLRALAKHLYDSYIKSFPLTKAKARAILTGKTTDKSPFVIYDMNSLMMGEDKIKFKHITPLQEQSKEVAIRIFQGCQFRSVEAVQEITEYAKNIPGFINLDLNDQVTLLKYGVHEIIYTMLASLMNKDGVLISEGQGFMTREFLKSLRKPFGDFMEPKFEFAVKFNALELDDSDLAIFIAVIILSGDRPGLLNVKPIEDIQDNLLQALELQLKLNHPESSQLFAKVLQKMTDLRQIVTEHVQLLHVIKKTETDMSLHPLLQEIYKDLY
Excerpt: as §1, §2

[3] = target: T3, PPARδ (Mus musculus, UniProt P35396, A150G/E149D); assay: Cotransfection assay in CV-1 cells, PPRE3-TK-LUC reporter, CMX-PPARδ; assay type: cell-based; conditions: 5 μM Wy 14,643, 30 μM linoleic acid, 30 μM LY-171883
T3 construct: The second clone encodes a 440-amino acid protein; expressed in transfected cells; host or cells: CV-1 cells
T3 sequence (P35396 1-440 E149D/A150G): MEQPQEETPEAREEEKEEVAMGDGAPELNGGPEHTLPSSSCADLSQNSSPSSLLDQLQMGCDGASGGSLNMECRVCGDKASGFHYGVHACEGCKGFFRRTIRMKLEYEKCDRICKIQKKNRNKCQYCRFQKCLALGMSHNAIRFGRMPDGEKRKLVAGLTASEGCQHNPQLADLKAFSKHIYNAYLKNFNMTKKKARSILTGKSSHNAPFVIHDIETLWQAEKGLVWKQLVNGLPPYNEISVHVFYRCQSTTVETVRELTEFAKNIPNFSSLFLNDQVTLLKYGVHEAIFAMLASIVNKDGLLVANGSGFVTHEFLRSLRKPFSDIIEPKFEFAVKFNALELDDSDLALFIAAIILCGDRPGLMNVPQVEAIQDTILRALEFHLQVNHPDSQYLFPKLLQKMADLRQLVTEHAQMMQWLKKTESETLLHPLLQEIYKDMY
Excerpt: as §2

[4] = tested on: PPARα; assay: cell_activity; conditions: 5 uM Wy 14,643, CV-1 cells, luciferase reporter

Compound	activation of PPARα (reporter expression) [1]	activation of PPARγ (reporter expression) [2]	activation of PPARδ (reporter expression) [3]	activity (fold activation) [4]
CCCc1c(OCCCCc2nnn[nH]2)ccc(C(C)=O)c1O [LY-171883]	strong activators	significant activation; also recorded: most efficiently activated	not activated	–
Cc1cccc(Nc2cc(Cl)nc(SCC(=O)O)n2)c1C [Wy 14,643]	most efficiently activated	no activation; also recorded: fail to respond; also recorded: fails to activate	–	–
CCCCC/C=C\C/C=C\CCCCCCCC(=O)O [linoleic acid]	strong activators	no activation	activated; also recorded: most efficiently activated	–
PPRE3-TK-LUC (three copies of AOX-PPRE)	–	–	–	> 100
